Results from US10597388B2, “Pyridazinone herbicides” (FMC CORPORATION, priority 2014, dated 2020).

Columns and labels:
Assay in all cases: Test E greenhouse herbicide test, pre- and postemergence
Type in all cases: in vivo
[1] = system: foxtail, green (green foxtail, Setaria viridis); details: Preemergence
Method in brief: (§1)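 Compounds in surfactant-containing solvent are applied to soil right after sowing (silt loam) and, in parallel, to 1- to 4-leaf plants in a peat-based medium. Weed control is scored visually on a 0 (none) to 100 (complete) scale at 14 to 21 d.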

[2] = system: dayflower (Virginia (VA) dayflower, Commelina virginica)
Method in brief: as §1

soybean (Glycine max) = system: soybean (Glycine max)
Method in brief: as §1

[3] = system: pigweed, palmer (palmer pigweed, Amaranthus palmeri)
Method in brief: as §1

[4] = system: wild poinsettia (Euphorbia heterophylla); details: Postemergence
Method in brief: as §1

corn (Zea mays) = system: corn (Zea mays)
Method in brief: as §1

[5] = system: lambsquarters (Chenopodium album); details: Preemergence
Method in brief: as §1

[6] = system: johnsongrass (Sorghum halepense); details: Preemergence
Method in brief: as §1

[7] = system: barnyardgrass (Echinochloa crus-galli)
Method in brief: as §1

[8] = system: arrowleaf sida (Sida rhombifolia)
Method in brief: as §1

[9] = system: Italian ryegrass (Lolium multiflorum)
Method in brief: as §1

[10] = system: nutsedge, yellow (yellow nutsedge, Cyperus esculentus); details: Preemergence
Method in brief: as §1

[11] = system: velvetleaf (Abutilon theophrasti); details: Preemergence
Method in brief: as §1

[12] = system: momingglory (Ipomoea coccinea); details: Preemergence
Method in brief: as §1

[13] = 62 g ai/ha, scale 0 to 100 (0 no effect, 100 complete control)
[14] = 31 g ai/ha, scale 0 to 100, 0 no effect, 100 complete control
[15] = 125 g ai/ha, visual, scale 0 no effect to 100 complete control
[16] = 250 g ai/ha, visual, scale 0 no effect to 100 complete control
[17] = 62 g ai/ha, Postemergence, scale 0 to 100 (0 no effect, 100 complete control)
[18] = 62 g ai/ha, Preemergence, scale 0 to 100 (0 no effect, 100 complete control)
[19] = 125 g ai/ha, Postemergence, scale 0 to 100 (0 no effect, 100 complete control)
[20] = 250 g ai/ha, Postemergence, scale 0 to 100 (0 no effect, 100 complete control)
[21] = Postemergence, 31 g ai/ha, visual, scale 0 no effect to 100 complete control
[22] = Preemergence, 31 g ai/ha, scale 0 to 100, 0 no effect, 100 complete control
[23] = Preemergence, 125 g ai/ha, visual, scale 0 no effect to 100 complete control
[24] = Preemergence, 250 g ai/ha, visual, scale 0 no effect to 100 complete control
[25] = 125 g ai/ha, Preemergence, scale 0 to 100 (0 no effect, 100 complete control)
[26] = 125 g ai/ha, scale 0 to 100 (0 no effect, 100 complete control)

Cn1nc(Br)c(O)c(-c2cccc3ccccc23)c1=O [Compound 20]
15: Plant response rating, Corn (corn (Zea mays); [20])
50: Plant response rating, Dayflower, VA [2, 19] | Plant response rating, Dayflower, VA [2, 20] | Plant response rating, Barnyardgrass [7, 17] | Plant response rating, Ryegrass, Italian [9, 17] | Plant response rating, Nutsedge, Yellow [10, 13]
10: Plant response rating, Dayflower, VA [2, 17] | Plant response rating, Barnyardgrass [7, 23]
40: Plant response rating, Foxtail, Green [1, 13] | Plant response rating, Soybean (soybean (Glycine max); [19]) | Plant response rating, Pigweed, Palmer [3, 21] | Plant response rating, Arrowleaf Sida [8, 21] | Plant response rating, Ryegrass, Italian [9, 21]
85: Plant response rating, Arrowleaf Sida [8, 23]
5: Plant response rating, Pigweed, Palmer [3, 25]
98: Plant response rating, Ryegrass, Italian [9, 25]
55: Plant response rating, Pigweed, Palmer [3, 19]
70: Plant response rating, Foxtail, Green [1, 16] | Plant response rating, Pigweed, Palmer [3, 20] | Plant response rating, Pigweed, Palmer [3, 24] | Plant response rating, Lambsquarters [5, 14] | Plant response rating, Arrowleaf Sida [8, 18] | Plant response rating, Arrowleaf Sida [8, 19] | Plant response rating, Ryegrass, Italian [9, 19]
35: Plant response rating, Pigweed, Palmer [3, 17]
95: Plant response rating, Lambsquarters [5, 13] | Plant response rating, Lambsquarters [5, 15] | Plant response rating, Arrowleaf Sida [8, 24] | Plant response rating, Ryegrass, Italian [9, 18] | Plant response rating, Nutsedge, Yellow [10, 16] | Plant response rating, Morningglory [12, 16]
0: Plant response rating, Foxtail, Green [1, 14] | Plant response rating, Dayflower, VA [2, 18] | Plant response rating, Dayflower, VA [2, 21] | Plant response rating, Dayflower, VA [2, 22] | Plant response rating, Dayflower, VA [2, 23] | Plant response rating, Dayflower, VA [2, 24] | Plant response rating, Soybean (soybean (Glycine max); [18]) | Plant response rating, Soybean (soybean (Glycine max); [22]) | Plant response rating, Pigweed, Palmer [3, 18] | Plant response rating, Pigweed, Palmer [3, 22] | Plant response rating, Poinsettia, Wild ([4]; 31 g ai/ha, visual, scale 0 no effect to 100 complete control) | Plant response rating, Corn (corn (Zea mays); [17]) | Plant response rating, Corn (corn (Zea mays); [18]) | Plant response rating, Corn (corn (Zea mays); [19]) | Plant response rating, Corn (corn (Zea mays); [21]) | Plant response rating, Corn (corn (Zea mays); [22]) | Plant response rating, Corn (corn (Zea mays); [23]) | Plant response rating, Corn (corn (Zea mays); [24]) | Plant response rating, Johnsongrass [6, 14] | Plant response rating, Johnsongrass [6, 16] | Plant response rating, Barnyardgrass [7, 18] | Plant response rating, Barnyardgrass [7, 22] | Plant response rating, Arrowleaf Sida [8, 22] | Plant response rating, Nutsedge, Yellow [10, 14] | Plant response rating, Velvetleaf [11, 14]
90: Plant response rating, Ryegrass, Italian [9, 22] | Plant response rating, Morningglory [12, 26]
75: Plant response rating, Nutsedge, Yellow [10, 26] | Plant response rating, Morningglory [12, 13]
30: Plant response rating, Soybean (soybean (Glycine max); [20]) | Plant response rating, Poinsettia, Wild [4, 26] | Plant response rating, Poinsettia, Wild ([4]; 250 g ai/ha, scale 0 to 100 (0 no effect, 100 complete control)) | Plant response rating, Barnyardgrass [7, 21] | Plant response rating, Barnyardgrass [7, 24]
65: Plant response rating, Foxtail, Green [1, 15] | Plant response rating, Velvetleaf [11, 13]
100: Plant response rating, Lambsquarters [5, 16] | Plant response rating, Ryegrass, Italian [9, 24] | Plant response rating, Velvetleaf [11, 16]
60: Plant response rating, Barnyardgrass [7, 19] | Plant response rating, Arrowleaf Sida [8, 17]
80: Plant response rating, Barnyardgrass [7, 20] | Plant response rating, Arrowleaf Sida [8, 20] | Plant response rating, Ryegrass, Italian [9, 20] | Plant response rating, Velvetleaf [11, 26]
20: Plant response rating, Soybean (soybean (Glycine max); [17]) | Plant response rating, Soybean (soybean (Glycine max); [25]) | Plant response rating, Soybean (soybean (Glycine max); [21]) | Plant response rating, Poinsettia, Wild [4, 13] | Plant response rating, Morningglory [12, 14]
